Source: the supplement of paper PMC10307832

Legend:
Test in all cases: relative viability (nuclei count vs DMSO), 5 days (fraction); higher = more cells survive
[1] = compound: O=C(Nc1cccc(C(F)(F)F)c1)Nc1cc(S(=O)(=O)NC2CC2)ccc1-c1ccsc1 [AGI-6780] + CC(=O)Nc1cccc(-n2c(=O)n(C3CC3)c(=O)c3c(Nc4ccc(I)cc4F)n(C)c(=O)c(C)c32)c1 [Trametinib] (partner 0.02 µM)
Summary of the method: (§1)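 For relative viability, nuclei counts in treated wells were divided by those in vehicle wells. Lung cancer cell lines had been pin-tool dosed in 1536-well plates the day after seeding and cultured for 5 days, then fixed and stained in one step (final 0.05% Triton X-100, 1% formaldehyde, 1 ug/ml Hoechst) and imaged at 4×. Doses were one drug alone or a fixed anchor-drug dose plus five library-drug doses (not always all listed) in √10 steps, and values are duplicate-plate medians.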

[2] = compound: O=C(Nc1cccc(C(F)(F)F)c1)Nc1cc(S(=O)(=O)NC2CC2)ccc1-c1ccsc1 [AGI-6780] + CS(=O)(=O)CCNCc1ccc(-c2ccc3ncnc(Nc4ccc(OCc5cccc(F)c5)c(Cl)c4)c3c2)o1 [Lapatinib] (partner 2 µM)
Summary of the method: as §1

[3] = compound: O=C(Nc1cccc(C(F)(F)F)c1)Nc1cc(S(=O)(=O)NC2CC2)ccc1-c1ccsc1 [AGI-6780] + O=C(c1cc(Cc2n[nH]c(=O)c3ccccc23)ccc1F)N1CCN(C(=O)C2CC2)CC1 [Olaparib] (partner 8 µM)
Summary of the method: as §1

[4] = compound: O=C(Nc1cccc(C(F)(F)F)c1)Nc1cc(S(=O)(=O)NC2CC2)ccc1-c1ccsc1 [AGI-6780] + N=C(N)NC(=N)NCCc1ccccc1 [Phenformin] (partner 250 µM)
Summary of the method: as §1

Cell Line: COR-L23
- relative viability ([1]; first compound 0.08 µM): 0.601
- relative viability ([1]; first compound 0.253 µM): 0.536
- relative viability ([1]; first compound 0.8 µM): 0.529
- relative viability ([1]; first compound 2.53 µM): 0.379
- relative viability ([1]; first compound 8 µM): 0.568
- relative viability ([2]; first compound 0.08 µM): 0.905
- relative viability ([2]; first compound 0.253 µM): 0.919
- relative viability ([2]; first compound 0.8 µM): 0.982
- relative viability ([2]; first compound 2.53 µM): 1.31
- relative viability ([2]; first compound 8 µM): 0.997
- relative viability ([3]; first compound 0.08 µM): 0.349
- relative viability ([3]; first compound 0.253 µM): 0.385
- relative viability ([3]; first compound 0.8 µM): 0.274
- relative viability ([3]; first compound 2.53 µM): 0.32
- relative viability ([3]; first compound 8 µM): 0.387
- relative viability ([4]; first compound 0.08 µM): 0.457
- relative viability ([4]; first compound 0.253 µM): 0.489
- relative viability ([4]; first compound 0.8 µM): 0.424
- relative viability ([4]; first compound 2.53 µM): 0.408
- relative viability ([4]; first compound 8 µM): 0.506

Cell Line: LK-2
- relative viability ([1]; first compound 0.08 µM): 0.864
- relative viability ([1]; first compound 0.253 µM): 0.69
- relative viability ([1]; first compound 0.8 µM): 0.813
- relative viability ([1]; first compound 2.53 µM): 0.541
- relative viability ([1]; first compound 8 µM): 0.868
- relative viability ([2]; first compound 0.08 µM): 0.867
- relative viability ([2]; first compound 0.253 µM): 0.951
- relative viability ([2]; first compound 0.8 µM): 1.14
- relative viability ([2]; first compound 8 µM): 0.958
- relative viability ([3]; first compound 0.08 µM): 0.643
- relative viability ([3]; first compound 0.253 µM): 0.778
- relative viability ([3]; first compound 0.8 µM): 0.945
- relative viability ([3]; first compound 8 µM): 0.755
- relative viability ([4]; first compound 0.08 µM): 0.598
- relative viability ([4]; first compound 0.253 µM): 0.556
- relative viability ([4]; first compound 0.8 µM): 0.648
- relative viability ([4]; first compound 8 µM): 0.495

Cell Line: PC-14
- relative viability ([1]; first compound 0.08 µM): 0.802
- relative viability ([1]; first compound 0.253 µM): 0.764
- relative viability ([1]; first compound 0.8 µM): 1.02
- relative viability ([1]; first compound 2.53 µM): 0.731
- relative viability ([1]; first compound 8 µM): 0.752
- relative viability ([2]; first compound 0.08 µM): 0.312
- relative viability ([2]; first compound 0.253 µM): 0.348
- relative viability ([2]; first compound 0.8 µM): 0.312
- relative viability ([2]; first compound 2.53 µM): 0.314
- relative viability ([2]; first compound 8 µM): 0.291
- relative viability ([3]; first compound 0.08 µM): 0.378
- relative viability ([3]; first compound 0.253 µM): 0.282
- relative viability ([3]; first compound 0.8 µM): 0.234
- relative viability ([3]; first compound 2.53 µM): 0.318
- relative viability ([3]; first compound 8 µM): 0.276
- relative viability ([4]; first compound 0.08 µM): 0.464
- relative viability ([4]; first compound 0.253 µM): 0.665
- relative viability ([4]; first compound 0.8 µM): 0.576
- relative viability ([4]; first compound 2.53 µM): 0.581
- relative viability ([4]; first compound 8 µM): 0.695

Cell Line: SW 1573
- relative viability ([1]; first compound 0.08 µM): 0.567
- relative viability ([1]; first compound 0.253 µM): 0.533
- relative viability ([1]; first compound 0.8 µM): 0.489
- relative viability ([1]; first compound 8 µM): 0.602
- relative viability ([2]; first compound 0.08 µM): 1.3
- relative viability ([2]; first compound 0.253 µM): 1.29
- relative viability ([2]; first compound 0.8 µM): 1.08
- relative viability ([2]; first compound 2.53 µM): 0.957
- relative viability ([2]; first compound 8 µM): 1.06
- relative viability ([3]; first compound 0.08 µM): 0.578
- relative viability ([3]; first compound 0.253 µM): 0.481
- relative viability ([3]; first compound 0.8 µM): 0.525
- relative viability ([3]; first compound 2.53 µM): 0.426
- relative viability ([3]; first compound 8 µM): 0.465
- relative viability ([4]; first compound 0.08 µM): 0.378
- relative viability ([4]; first compound 0.253 µM): 0.36
- relative viability ([4]; first compound 0.8 µM): 0.567
- relative viability ([4]; first compound 8 µM): 0.368

Cell Line: NCI-H2085
- relative viability ([1]; first compound 0.08 µM): 0.651
- relative viability ([1]; first compound 0.253 µM): 0.581
- relative viability ([1]; first compound 0.8 µM): 0.526
- relative viability ([1]; first compound 2.53 µM): 0.666
- relative viability ([1]; first compound 8 µM): 0.735
- relative viability ([2]; first compound 0.08 µM): 0.787
- relative viability ([2]; first compound 0.253 µM): 0.771
- relative viability ([2]; first compound 0.8 µM): 0.843
- relative viability ([2]; first compound 2.53 µM): 0.724
- relative viability ([2]; first compound 8 µM): 0.78
- relative viability ([3]; first compound 0.08 µM): 0.823
- relative viability ([3]; first compound 0.253 µM): 0.739
- relative viability ([3]; first compound 0.8 µM): 0.738
- relative viability ([3]; first compound 2.53 µM): 0.849
- relative viability ([3]; first compound 8 µM): 0.761
- relative viability ([4]; first compound 0.08 µM): 0.728
- relative viability ([4]; first compound 0.253 µM): 0.836
- relative viability ([4]; first compound 0.8 µM): 0.736
- relative viability ([4]; first compound 2.53 µM): 0.716
- relative viability ([4]; first compound 8 µM): 0.707

Cell Line: NCI-H441
- relative viability ([1]; first compound 0.08 µM): 0.554
- relative viability ([1]; first compound 0.253 µM): 0.49
- relative viability ([1]; first compound 0.8 µM): 0.553
- relative viability ([1]; first compound 2.53 µM): 0.422
- relative viability ([1]; first compound 8 µM): 0.51
- relative viability ([3]; first compound 0.08 µM): 0.627
- relative viability ([3]; first compound 0.253 µM): 0.525
- relative viability ([3]; first compound 0.8 µM): 0.624
- relative viability ([3]; first compound 2.53 µM): 0.441
- relative viability ([3]; first compound 8 µM): 0.453
- relative viability ([4]; first compound 0.08 µM): 1.07
- relative viability ([4]; first compound 0.253 µM): 0.964
- relative viability ([4]; first compound 0.8 µM): 0.822
- relative viability ([4]; first compound 2.53 µM): 0.668
- relative viability ([4]; first compound 8 µM): 0.787

Cell Line: NCI-H1648
- relative viability ([1]; first compound 0.08 µM): 0.47
- relative viability ([1]; first compound 0.253 µM): 0.53
- relative viability ([1]; first compound 0.8 µM): 0.377
- relative viability ([1]; first compound 2.53 µM): 0.409
- relative viability ([1]; first compound 8 µM): 0.433
- relative viability ([3]; first compound 0.08 µM): 0.89
- relative viability ([3]; first compound 0.253 µM): 0.807
- relative viability ([3]; first compound 0.8 µM): 0.783
- relative viability ([3]; first compound 2.53 µM): 0.497
- relative viability ([3]; first compound 8 µM): 0.415

Cell Line: NCI-H2126
- relative viability ([1]; first compound 0.08 µM): 0.613
- relative viability ([1]; first compound 0.253 µM): 0.601
- relative viability ([1]; first compound 0.8 µM): 0.507
- relative viability ([1]; first compound 2.53 µM): 0.479
- relative viability ([1]; first compound 8 µM): 0.566
- relative viability ([2]; first compound 0.08 µM): 0.782
- relative viability ([2]; first compound 0.253 µM): 0.798
- relative viability ([2]; first compound 0.8 µM): 0.73
- relative viability ([2]; first compound 2.53 µM): 0.586
- relative viability ([2]; first compound 8 µM): 0.757
- relative viability ([3]; first compound 0.08 µM): 0.981
- relative viability ([3]; first compound 0.253 µM): 0.895
- relative viability ([3]; first compound 0.8 µM): 0.914
- relative viability ([3]; first compound 2.53 µM): 0.84
- relative viability ([3]; first compound 8 µM): 0.959
- relative viability ([4]; first compound 0.08 µM): 0.543
- relative viability ([4]; first compound 0.253 µM): 0.568
- relative viability ([4]; first compound 0.8 µM): 0.539
- relative viability ([4]; first compound 2.53 µM): 0.526
- relative viability ([4]; first compound 8 µM): 0.539
